Measurements taken from patent US20260042755A1, “GPR6 INVERSE AGONISTS” (MapLight Therapeutics, Inc., priority 2022, published 2026).

What was measured:
GPR6 = molecular target: T1, GPR6 (Homo sapiens, UniProt P46095); test: GPR6 antagonist functional cAMP assay (LANCE Ultra cAMP TR-FRET, CHO cells stably expressing GPR6); format: cell-based; details: CHO cells stably expressing GPR6, cAMP assay (Example 24)
T1 construct: expressed in transfected cells; host or cells: CHO cells
Summary of the method: (§1)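 10,000 cells/well; KRB buffer + 0.1% BSA + 150 μM Ro 20-1724; cpd 45 min, 37 °C, 0.1% DMSO; TR-FRET cAMP, 665 nm; 4-PL fit, normalized to DMSO (0.1%) and reference (100%) → IC50.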

GPR3 = molecular target: T2, GPR3 (Homo sapiens, UniProt P46089); test: GPR3 antagonist functional cAMP assay (LANCE Ultra cAMP TR-FRET, CHO cells stably expressing GPR3); format: cell-based; details: CHO cells stably expressing GPR3, cAMP assay (Example 24)
T2 construct: expressed in transfected cells; host or cells: CHO cells
Summary of the method: as §1

T2 sequence (P46089 whole entry, species assumed): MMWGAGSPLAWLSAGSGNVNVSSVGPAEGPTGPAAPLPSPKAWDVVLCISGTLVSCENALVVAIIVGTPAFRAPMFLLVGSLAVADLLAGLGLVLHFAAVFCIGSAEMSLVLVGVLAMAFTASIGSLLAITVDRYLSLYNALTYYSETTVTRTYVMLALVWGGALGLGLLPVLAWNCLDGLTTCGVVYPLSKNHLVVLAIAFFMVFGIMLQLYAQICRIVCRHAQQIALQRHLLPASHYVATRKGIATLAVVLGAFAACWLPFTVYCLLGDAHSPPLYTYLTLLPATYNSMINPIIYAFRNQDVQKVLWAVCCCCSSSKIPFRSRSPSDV
T1 sequence (P46095 whole entry): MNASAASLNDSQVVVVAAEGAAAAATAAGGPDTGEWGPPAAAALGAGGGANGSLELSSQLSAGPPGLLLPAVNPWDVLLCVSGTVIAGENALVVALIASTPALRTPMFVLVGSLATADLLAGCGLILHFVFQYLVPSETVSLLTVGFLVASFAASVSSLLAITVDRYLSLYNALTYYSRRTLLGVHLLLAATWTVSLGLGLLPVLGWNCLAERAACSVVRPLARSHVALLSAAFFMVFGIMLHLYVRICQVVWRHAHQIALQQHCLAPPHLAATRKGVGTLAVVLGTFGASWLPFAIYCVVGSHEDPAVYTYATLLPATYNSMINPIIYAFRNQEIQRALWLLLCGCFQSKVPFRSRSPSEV

Row | Compound | IC50 (GPR6) [nM] | IC50 (GPR3) [nM]
1 | O=C(CO)N1CCc2nc(N3CCC(Oc4ccc(F)cc4F)CC3)c(-c3cn[nH]c3)nc2C1 [Compound 179, 1-{2-[4-(2,4-difluorophenoxy)piperidin-1-yl]-3-(1H-pyrazol-4-yl)-5H,6H,7H,8H-pyrido[3,4-b]pyrazin-6-yl}-2-hydroxyethan-1-one] | < 100 | 1000 to 30000
2 | CNC(=O)N1CCc2nc(N3CCC(Oc4ccc(F)cc4F)CC3)c(-c3cn[nH]c3)nc2C1 [Compound 180, 2-[4-(2,4-difluorophenoxy)piperidin-1-yl]-N-methyl-3-(1H-pyrazol-4-yl)-5H,6H,7H,8H-pyrido[3,4-b]pyrazine-6-carboxamide] | 1000 to 30000 | 1000 to 30000
3 | CNC(=O)N1CCc2nc(N3CCC(Oc4ccc(F)cc4F)CC3)c(-c3cnn(C4CCCCO4)c3)nc2C1 (stereo not drawn) [Compound 181, 2-[4-(2,4-difluorophenoxy)piperidin-1-yl]-N-methyl-3-[1-(oxan-2-yl)-1H-pyrazol-4-yl]-5H,6H,7H,8H-pyrido[3,4-b]pyrazine-6-carboxamide] | 1000 to 30000 | 1000 to 30000
4 | CN(C)C(=O)N1CCc2nc(N3CCC(Oc4ccc(F)cc4F)CC3)c(-c3cnn(C4CCCCO4)c3)nc2C1 (stereo not drawn) [Compound 182, 2-[4-(2,4-difluorophenoxy)piperidin-1-yl]-N,N-dimethyl-3-[1-(oxan-2-yl)-1H-pyrazol-4-yl]-5H,6H,7H,8H-pyrido[3,4-b]pyrazine-6-carboxamide] | 100 to 1000 | 1000 to 30000
5 | COc1cccc(-c2nc3c(nc2N2CCN(Cc4cc(Cl)ccc4Cl)CC2)CCN(C(C)=O)C3)n1 [Compound 183, 1-(2-{4-[(2,5-dichlorophenyl)methyl]piperazin-1-yl}-3-(6-methoxypyridin-2-yl)-5H,6H,7H,8H-pyrido[3,4-b]pyrazin-6-yl)ethan-1-one] | < 100 | 1000 to 30000
6 | O=C(C1COC1)N1CCc2nc(N3CCC(Oc4ccc(F)cc4F)CC3)c(-c3cn[nH]c3)nc2C1 [Compound 184, 4-(2,4-difluorophenoxy)-1-[6-(oxetane-3-carbonyl)-3-(1H-pyrazol-4-yl)-5H,6H,7H,8H-pyrido[3,4-b]pyrazin-2-yl]piperidine] | < 100 | 1000 to 30000
7 | C=CC(=O)N1CCc2nc(N3CCC(Oc4ccc(F)cc4F)CC3)c(-c3cnn(C4CCCCO4)c3)nc2C1 (stereo not drawn) [Compound 185, 1-{2-[4-(2,4-difluorophenoxy)piperidin-1-yl]-3-[1-(oxan-2-yl)-1H-pyrazol-4-yl]-5H,6H,7H,8H-pyrido[3,4-b]pyrazin-6-yl}prop-2-en-1-one] | 100 to 1000 | 1000 to 30000
8 | CC(C)(C)OC(=O)N1CCCC1C(=O)N1CCc2nc(N3CCC(Oc4ccc(F)cc4F)CC3)c(-c3cnn(C4CCCCO4)c3)nc2C1 (stereo not drawn) [Compound 186, tert-butyl 2-{2-[4-(2,4-difluorophenoxy)piperidin-1-yl]-3-[1-(oxan-2-yl)-1H-pyrazol-4-yl]-5H,6H,7H,8H-pyrido[3,4-b]pyrazine-6-carbonyl}pyrrolidine-1-carboxylate] | 1000 to 30000 | 1000 to 30000
9 | CN(C)C(=O)N1CCc2nc(N3CCC(Oc4ccc(F)cc4F)CC3)c(-c3cn[nH]c3)nc2C1 [Compound 187, 2-[4-(2,4-difluorophenoxy)piperidin-1-yl]-N,N-dimethyl-3-(1H-pyrazol-4-yl)-5H,6H,7H,8H-pyrido[3,4-b]pyrazine-6-carboxamide] | < 100 | 1000 to 30000
10 | Cn1cc(-c2nc3cnccc3nc2N2CCC(C)(Oc3ccc(F)cc3F)CC2)cn1 [Compound 188, 4-(2,4-difluorophenoxy)-4-methyl-1-[3-(1-methyl-1H-pyrazol-4-yl)pyrido[3,4-b]pyrazin-2-yl]piperidine] | 100 to 1000 | 1000 to 30000
11 | COc1ccc(-c2nc3c(nc2N2CCC(Oc4ccc(F)cc4F)CC2)CCN(C(C)=O)C3)nn1 [Compound 189, 1-{2-[4-(2,4-difluorophenoxy)piperidin-1-yl]-3-(6-methoxypyridazin-3-yl)-5H,6H,7H,8H-pyrido[3,4-b]pyrazin-6-yl}ethan-1-one] | 100 to 1000 | 1000 to 30000
12 | COc1ncc(-c2nc3c(nc2N2CCC(Oc4ccc(F)cc4F)CC2)CCN(C(C)=O)C3)cn1 [Compound 190, 1-{2-[4-(2,4-difluorophenoxy)piperidin-1-yl]-3-(2-methoxypyrimidin-5-yl)-5H,6H,7H,8H-pyrido[3,4-b]pyrazin-6-yl}ethan-1-one] | 100 to 1000 | 1000 to 30000
13 | COc1cnc(-c2nc3c(nc2N2CCC(Oc4ccc(F)cc4F)CC2)CCN(C(C)=O)C3)nc1 [Compound 191, 1-{2-[4-(2,4-difluorophenoxy)piperidin-1-yl]-3-(5-methoxypyrimidin-2-yl)-5H,6H,7H,8H-pyrido[3,4-b]pyrazin-6-yl}ethan-1-one] | 1000 to 30000 | 1000 to 30000
14 | COc1cnnc(-c2nc3c(nc2N2CCC(Oc4ccc(F)cc4F)CC2)CCN(C(C)=O)C3)c1 [Compound 192, 1-{2-[4-(2,4-difluorophenoxy)piperidin-1-yl]-3-(5-methoxypyridazin-3-yl)-5H,6H,7H,8H-pyrido[3,4-b]pyrazin-6-yl}ethan-1-one] | 1000 to 30000 | 1000 to 30000
15 | Cn1cc(-c2nc3cnc(Cl)cc3nc2N2CCN(Cc3ccc(F)cc3F)CC2)cn1 [Compound 193, 1-[7-chloro-3-(1-methyl-1H-pyrazol-4-yl)pyrido[3,4-b]pyrazin-2-yl]-4-[(2,4-difluorophenyl)methyl]piperazine] | 1000 to 30000 | 1000 to 30000
16 | Cn1cc(-c2nc3cnc(CO)cc3nc2N2CCN(Cc3ccc(F)cc3F)CC2)cn1 [Compound 194, (2-{4-[(2,4-difluorophenyl)methyl]piperazin-1-yl}-3-(1-methyl-1H-pyrazol-4-yl)pyrido[3,4-b]pyrazin-7-yl)methanol] | 100 to 1000 | 1000 to 30000
17 | CC(=O)N1CCc2nc(N3CCC(Oc4ccc(F)cc4F)CC3)c(-c3cnn(CC(C)C)c3)nc2C1 [Compound 195, 1-{2-[4-(2,4-difluorophenoxy)piperidin-1-yl]-3-[1-(2-methylpropyl)-1H-pyrazol-4-yl]-5H,6H,7H,8H-pyrido[3,4-b]pyrazin-6-yl}ethan-1-one] | 100 to 1000 | 1000 to 30000
18 | CC(=O)N1CCc2nc(N3CCC(Oc4ccc(F)cc4F)CC3)c(-c3cnn(C(C)(C)C#N)c3)nc2C1 [Compound 196, 2-(4-{6-acetyl-2-[4-(2,4-difluorophenoxy)piperidin-1-yl]-5H,6H,7H,8H-pyrido[3,4-b]pyrazin-3-yl}-1H-pyrazol-1-yl)-2-methylpropanenitrile] | 1000 to 30000 | 1000 to 30000
19 | CC(=O)N1CCc2nc(N3CCC(Oc4ccc(F)cc4F)CC3)c(C3=CCOCC3)nc2C1 [Compound 198, 1-{2-[4-(2,4-difluorophenoxy)piperidin-1-yl]-3-(3,6-dihydro-2H-pyran-4-yl)-5H,6H,7H,8H-pyrido[3,4-b]pyrazin-6-yl}ethan-1-one] | 100 to 1000 | 1000 to 30000
20 | Fc1ccc(OC2CCN(c3nc4c(nc3-c3cn[nH]c3)CN(C3COC3)CC4)CC2)c(F)c1 [Compound 199, 4-(2,4-difluorophenoxy)-1-[6-(oxetan-3-yl)-3-(1H-pyrazol-4-yl)-5H,6H,7H,8H-pyrido[3,4-b]pyrazin-2-yl]piperidine] | 100 to 1000 | 1000 to 30000
21 | N#CN1CCc2nc(N3CCC(Oc4ccc(F)cc4F)CC3)c(-c3cnn(C4CCCCO4)c3)nc2C1 (stereo not drawn) [Compound 200, 2-[4-(2,4-difluorophenoxy)piperidin-1-yl]-3-[1-(oxan-2-yl)-1H-pyrazol-4-yl]-5H,6H,7H,8H-pyrido[3,4-b]pyrazine-6-carbonitrile] | 1000 to 30000 | 1000 to 30000
22 | COCC(=O)N1CCc2nc(N3CCC(Oc4ccc(F)cc4F)CC3)c(-c3cnn(C4CCCCO4)c3)nc2C1 (stereo not drawn) [Compound 201, 1-{2-[4-(2,4-difluorophenoxy)piperidin-1-yl]-3-[1-(oxan-2-yl)-1H-pyrazol-4-yl]-5H,6H,7H,8H-pyrido[3,4-b]pyrazin-6-yl}-2-methoxyethan-1-one] | 1000 to 30000 | 1000 to 30000
23 | O=C(CN1CCOCC1)N1CCc2nc(N3CCC(Oc4ccc(F)cc4F)CC3)c(-c3cnn(C4CCCCO4)c3)nc2C1 (stereo not drawn) [Compound 202, 1-{2-[4-(2,4-difluorophenoxy)piperidin-1-yl]-3-[1-(oxan-2-yl)-1H-pyrazol-4-yl]-5H,6H,7H,8H-pyrido[3,4-b]pyrazin-6-yl}-2-(morpholin-4-yl)ethan-1-one] | 1000 to 30000 | 1000 to 30000
24 | C=CC(=O)N1CCc2nc(N3CCC(Oc4ccc(F)cc4F)CC3)c(-c3cn[nH]c3)nc2C1 [Compound 203, 1-{2-[4-(2,4-difluorophenoxy)piperidin-1-yl]-3-(1H-pyrazol-4-yl)-5H,6H,7H,8H-pyrido[3,4-b]pyrazin-6-yl}prop-2-en-1-one] | < 100 | 1000 to 30000
25 | O=C(CO)N1CCc2nc(N3CCC(Oc4ccc(F)cc4F)CC3)c(-c3cnn(C4CCCCO4)c3)nc2C1 (stereo not drawn) [Compound 204, 1-{2-[4-(2,4-difluorophenoxy)piperidin-1-yl]-3-[1-(oxan-2-yl)-1H-pyrazol-4-yl]-5H,6H,7H,8H-pyrido [3,4-b]pyrazin-6-yl}-2-hydroxyethan-1-one] | 100 to 1000 | ≥ 30000
26 | COc1cccc(-c2nc3c(nc2N2CCN(Cc4ccc(F)cc4Cl)CC2)CCN(C(C)=O)C3)n1 [Compound 205, 1-(2-{4-[(2-chloro-4-fluorophenyl)methyl]piperazin-1-yl}-3-(6-methoxypyridin-2-yl)-5H,6H,7H,8H-pyrido[3,4-b]pyrazin-6-yl)ethan-1-one] | 100 to 1000 | 1000 to 30000
27 | O=C(N1CCc2nc(N3CCC(Oc4ccc(F)cc4F)CC3)c(-c3cn[nH]c3)nc2C1)N1CC(O)C1 [Compound 206, 1-{2-[4-(2,4-difluorophenoxy)piperidin-1-yl]-3-(1H-pyrazol-4-yl)-5H,6H,7H,8H-pyrido[3,4-b]pyrazine-6-carbonyl}azetidin-3-ol] | 100 to 1000 | 1000 to 30000
